Laboratory results: ChEMBL document CHEMBL1201862, “PubChem BioAssay data set” (2004)
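Compound exposure: 48 hours, 5 concentrations, 96-well plates. GI50 = concentration required for 50% inhibition of growth.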 Active and inactive are the calls of the source. No stated cut-off is given here; in the data, active = GI50 up to about 1.1 µM and inactive = higher.

Tests used:
Test in all cases: DTP human tumour cell line panel, 48 h
XF498 = system: XF498
HOP-18 = system: HOP-18
RXF 631 = system: RXF 631
M19-MEL = system: M19-MEL
DMS-114 = system: DMS-114
DMS-273 = system: DMS-273
SNB-78 = system: SNB-78
DLD-1 = system: DLD-1
KM-20L2 = system: KM-20L2

Measured: GI50

CCNC1=Nc2ccc(Cl)cc2C(c2ccccc2)=NN1
inactive: XF498 25.8 µM | HOP-18 62.2 µM | RXF 631 19.9 µM | M19-MEL 18.1 µM | DMS-114 15.4 µM | DMS-273 10.9 µM | SNB-78 25.5 µM

CN(C)c1ccc(Cc2cc(C(C)(C)C)cc(C(C)(C)C)c2O)cc1
inactive: XF498 19.9 µM | HOP-18 26 µM | DLD-1 21.8 µM | RXF 631 17.3 µM | M19-MEL 21.3 µM | DMS-114 14.6 µM | DMS-273 17.4 µM | SNB-78 18.5 µM | KM-20L2 18.5 µM

CSc1nc2c(c(O)c(C)c(=O)n2C2OC(COC(C)=O)C(OC(C)=O)C(OC(C)=O)C2OC(C)=O)c(=O)n1C (centres undefined)
inactive: XF498 > 100 µM | HOP-18 > 100 µM | DLD-1 > 100 µM | RXF 631 > 100 µM | DMS-114 > 100 µM | DMS-273 > 100 µM | SNB-78 > 100 µM | KM-20L2 > 100 µM

CN1CC(=O)N(C)c2[nH]cnc2C1=O
inactive: XF498 80.9 µM | HOP-18 > 100 µM | DLD-1 > 100 µM | RXF 631 > 100 µM | M19-MEL > 100 µM | DMS-114 > 100 µM | DMS-273 > 100 µM | SNB-78 > 100 µM

CC(=O)OC1CC[C@@]2(C)C(CC[C@]3(C)C2CC=C2[C@@H]4CC(C)(C)CCC4(C)CCC23C)[C@@]1(C)C(=O)O (some centres undefined)
inactive: XF498 20.5 µM | HOP-18 21.9 µM | DLD-1 10.1 µM | RXF 631 12.9 µM | M19-MEL 22.2 µM | DMS-114 16.4 µM | DMS-273 16.4 µM | SNB-78 20.5 µM | KM-20L2 13.9 µM

O=C1c2ccccc2C(=O)c2sc(Nc3ccc(Cl)c(Cl)c3)nc21
inactive: XF498 2.54 µM | HOP-18 5.06 µM | DLD-1 2.15 µM | RXF 631 7.98 µM | M19-MEL 1.12 µM | DMS-114 1.67 µM | DMS-273 5.3 µM | SNB-78 2.52 µM | KM-20L2 19.5 µM

CC(C)C(=O)Nc1nc2[nH]cnc2c(=O)[nH]1
inactive: XF498 > 100 µM | HOP-18 > 100 µM | DLD-1 > 100 µM | RXF 631 > 100 µM | M19-MEL > 100 µM | DMS-114 > 100 µM | DMS-273 > 100 µM | SNB-78 > 100 µM | KM-20L2 > 100 µM
